Source: patent publication US10899781B2, “Platinum complex, its preparation and therapeutic use” (City University of Hong Kong, priority 2018, dated 2021)
Blank lines part the entries; values can stand above or below the compound they belong to.

How the values were obtained:
A2780 cells = test: Cellular accumulation of platinum by ICP-MS; format: cell-based, human; details: after 8 h
Procedure: FIG. 5 is a plot showing the accumulation of Complex A in A2780 cells after treatment with 0.5 μM Complex A for 1 to 12 h.
The inventors first tested the cellular accumulation of Complex A by ICP-MS. Platinum accumulation in A2780 cells increases dramatically over time before 8 h and very slowly increases over time after 8 h. Thus, an incubation time of 8 h is selected for the following biological assays.
The cellular accumulation levels of Pt in A2780 cells treated with Complex A and oxaliplatin after 8 h are 6.4±1.2 and 0.9±0.1 ng Pt/106 cells, respectively. […] The cellular distribution of Complex A was also observed.

[1] = test system: A2780 ovarian carcinoma cells; test: Cytotoxicity, MTT assay; format: cell-based, human; details: 8 h treatment
Procedure: (§1) The biological activity of Complex A was subsequently evaluated. A2780 cells were maintained in Roswell Park Memory Institution (RPMI) 1640 medium supported with 10% FBS, 2 mM L-glutamine, and 100 unit/mL penicillin/streptomycin. MCF-7 cells were cultured in Dulbecco's modified Eagle's medium supported with 10% FBS and 100 unit/mL penicillin/streptomycin. MRC-5 cells were maintained in Eagle's minimum essential medium supported with 10% FBS, 1 mM sodium pyruvate, 2 mM L-glutamine, 1 mM non-essential amino acid and 100 unit/mL penicillin/streptomycin. All the cells were incubated in a humidified incubator at 37° C. with 5% CO2
(§2) Cytotoxicity test was performed by exposing the cancer cells with Complex A. The viability of cancer cells exposed was evaluated by means of MTT assay. Cells were seeded in 96-well plates at a density of 3,000 cells per well and incubated until the cell confluency reached 50%. Then, the medium was removed and replaced with fresh medium containing different concentrations of complexes with 1% DMF. After 8 h, the medium was aspirated, the well was washed with PBS for twice, and Earle's balanced salt solution (EBSS) was added. […] The EBSS was removed, and fresh complete cell culture medium was added to each well. After 40 h, the medium was changed to serum-free medium containing 1 mg/mL MTT. After 2 h additional incubation, the medium was removed, and DMSO (200 μL) was delivered to each well to dissolve the formed purple formazan. The absorbance at 570 nm and 730 nm of each well was measured by using a microplate reader (BioTek PowerWave XS).
(§3) The cytotoxicity of Complex A was then evaluated, using oxaliplatin and PPA as controls. Cells were treated with the compounds for 8 h, followed by irradiation or incubation in the dark, and the cell viability was measured by the MTT assay after 40 h. Complex A is non-toxic to the tested cells in the dark, and is very active under irradiation.

[2] = test system: A2780cisR (platinum-resistant A2780 cells); test: Cytotoxicity, MTT assay; format: cell-based, human; details: for IC50: A2780cisR, 8 h treatment
Procedure: as §1, §2, §3

MCF-7 cells = test: Cytotoxicity, MTT assay; format: cell-based, human
Procedure: as §1, §2, §3

[3] = test system: MRC-5 normal human lung fibroblasts; test: Cytotoxicity, MTT assay; format: cell-based; details: in dark, MTT at 40 h
Procedure: as §1
Cytotoxicity test was performed by exposing the cancer cells with Complex A. The viability of cancer cells exposed was evaluated by means of MTT assay. Cells were seeded in 96-well plates at a density of 3,000 cells per well and incubated until the cell confluency reached 50%. Then, the medium was removed and replaced with fresh medium containing different concentrations of complexes with 1% DMF. […] The absorbance at 570 nm and 730 nm of each well was measured by using a microplate reader (BioTek PowerWave XS).
The cytotoxicity of Complex A was then evaluated, using oxaliplatin and PPA as controls. Cells were treated with the compounds for 8 h, followed by irradiation or incubation in the dark, and the cell viability was measured by the MTT assay after 40 h. […]

Fluorescence lifetime = format: physicochemical; details: in DMF
Text: The inventors further investigated the mechanism of the reduction Complex A. No overlap was observed between the absorbance spectra of PPA and the dihydroxyl Pt(IV) compound [Pt(DACH)(OH)2(ox)]. Therefore, direct energy transfer may not occur between PPA and the Pt(IV) center. […] The normalized fluorescence intensity of PPA and Complex A is identical, and the fluorescence lifetime of Complex A is 7 ns in DMF, which is the same as PPA. […] Since PPA is able to generate reactive oxygen species (ROS) and singlet oxygen through type I and type II photo process, respectively, the inventors used a hydroxyl radical scavenger, DMSO, and a singlet oxygen scavenger, NaN3, to investigate the electron transfer process. […] Thus, without to be bound by theory, the inventors believe that hydroxy radical is involved in the reaction, and the elimination of hydroxy radical may accelerate the reaction. Furthermore, it was observed that the reduction rate is related to the water content in the system.

[4] = Photoactivation (photo-reduction) of Complex A under 650 nm irradiation, HPLC; format: physicochemical; details: mixture of the compound and PPA in the presence of ascorbate
Procedure: FIG. 3 is a combined RP-HPLC chromatogram showing the intensity of Complex A and PPA after 10 μM Complex A in PBS buffer containing 1% DMF and 1 mM ascorbate was subject to irradiation at 650 nm with a power density of 7 mW/cm^2 for different time periods (from 0 min to 30 min). Peak 1 corresponds to Complex A, and Peak 2 corresponds to PPA.
FIG. 4 is a plot showing the amount of Complex A and PPA after subjecting to irradiation at 650 nm calculated from the results in FIG. 3.
The photoactivation property of Complex A was investigated. Buffer solution containing 10 μM Complex A with 1 mM ascorbate in a quartz cuvette was irradiated with LED lamp (650 nm, 7 mW/cm^2) under stirring. Samples were analyzed by HPLC. […] After irradiation for 10 min, 81% of Complex A was reduced, and most of the complex was reduced within 30 min. Irradiation of Complex A without the presence of ascorbate also leads to the release of PPA and oxaliplatin, but the reaction speed is much slower.
The inventors further investigated the mechanism of the reduction Complex A. No overlap was observed between the absorbance spectra of PPA and the dihydroxyl Pt(IV) compound [Pt(DACH)(OH)2(ox)]. […] The normalized fluorescence intensity of PPA and Complex A is identical, and the fluorescence lifetime of Complex A is 7 ns in DMF, which is the same as PPA. […]

[5] = with irradiation at 650 nm (7 mW/cm^2) for 15 min, MTT at 40 h after irradiation
[6] = Homo sapiens, in the dark, MTT at 40 h
[7] = Homo sapiens, light or radiation study, with irradiation at 650 nm (7 mW/cm^2) for 15 min, MTT at 40 h after irradiation

Compound: O=C1[O][Pt]2([NH][C@@H]3CCCC[C@H]3[NH]2)[O]C1=O [Oxaliplatin, oxaliplatin]
- cellular accumulation levels of Pt (A2780 cells): 0.9±0.1 ng Pt/106 cells
- IC50 ([1]; in the dark, MTT at 40 h): > 40 µM
- IC50 [1, 5]: > 40 µM
- IC50 ([2]; in the dark, MTT at 40 h): 162 ± 9 µM
- IC50 [2, 5]: 185 ± 8 µM
- resistant factor ([2]; IC50 towards cisplatin-resistant cells divided by IC50 towards non-resistant cells (A2780cisR / A2780)): 2.7
- IC50 (MCF-7 cells; 8 h treatment, in the dark, MTT at 40 h): 110 ± 4.3 µM
- IC50 (MCF-7 cells; 8 h treatment, with irradiation at 650 nm (7 mW/cm^2) for 15 min, MTT at 40 h after irradiation): 78.6 ± 8.7 µM
- IC50 ([3]; 8 h treatment): 122 ± 5.2 µM

- fluorescence lifetime (Fluorescence lifetime): 7 ns
Compound: C=Cc1c(C)c2cc3nc(c4c5[nH]c(cc6nc(cc1[nH]2)C(C)=C6CC)c(C)c5C(=O)C4)[C@@H](CCC(=O)O)[C@@H]3C [PPA, pyropheophorbide a]
- IC50 [1, 6]: > 10 µM
- IC50 [1, 7]: 0.34 ± 0.05 µM
- IC50 [2, 7]: 0.23 ± 0.01 µM
- IC50 [2, 6]: > 10 µM
- IC50 (MCF-7 cells; Homo sapiens, MCF7, 8 h treatment, in the dark, MTT at 40 h): > 10 µM
- IC50 (MCF-7 cells; Homo sapiens, MCF7, light or radiation study, 8 h treatment, with irradiation at 650 nm (7 mW/cm^2) for 15 min, MTT at 40 h after irradiation): 0.2 ± 0.02 µM
- IC50 ([3]; Homo sapiens, MRC5, 8 h treatment): > 10 µM

- reduction under irradiation [4]: cannot be reduced
Compound: [Pt(DACH)(OH)2(ox)] [[(Pt(DACH)(OH)2(ox))]]
